Experiments:
[1] = system: CHO cells over-expressing human wild-type APP (CHO/APPwt); assay: Aβ and sAPPα production in cultured media of CHO/APPwt cells by ELISA (24 hours); format: cell-based, Chinese hamster; conditions: 20 μg/mL
Description: Cell Culture—Chinese hamster ovary (CHO) cells engineered to express wild-type human APP (CHO/APPwt cells) or Swedish mutant human APP (CHO/APPswe cells) were kindly provided by Dr. Stefanie Hahn and Dr. Sascha Weggen (University of Heinrich Heine, Dusseldorf, Germany). As described previously (Obregon et al., 2012), these cells were cultured in Dulbecco's modified Eagle's medium (DMEM) with 10% fetal bovine serum (FBS), 1 mM sodium pyruvate, and 100 units/mL of penicillin and streptomycin.
To confirm the binding of APPsweBBP with BACE1, CHO/APPwt cells were plated in 8-well chambers (5×10^5/well), incubated with TAT-APPsweBBP-biotin or APPsweBBP-biotin at 20 μM for 30 minutes, fixed with 4% paraformaldehyde for 20 minutes, washed and permeabilized with 0.5% Triton X-100. Following application of blocking buffer, these cells were stained with mouse anti-BACE1 and rabbit anti-biotin antibodies overnight at 4° C. for immunocytochemistry analysis. […] The cultured media were collected for Aβ analysis by enzyme-linked immunosorbent assay (ELISA) and sAPPα analysis by ELISA and Western blot (WB). Cell lysates were also prepared for analysis of APP amyloidogenic processing by WB.
ELISA—Mouse brains were homogenized in ice-cold lysis buffer for 30 seconds using a Minilys tissue homogenizer (Bertin Technologies, Montigny-le-Bretonneux, France) set at high speed, allowed to stand for 15 minutes at 4° C., and centrifuged at 15,000 rpm for 30 minutes. Soluble Aβ1-40/42 species and sAPPα were directly detected in cultured cell media or brain homogenates using the Aβ1-40/42 (Invitrogen) and sAPPα ELISA kits (IBL-America, Minneapolis, Minn., USA).
To further examine the ability of the Swedish mutant APP BACE1 binding peptide/Tat fusion peptides to decrease Aβ production, CHO cells overexpressing either human wild-type APP (CHO/APPwt cells) or Swedish mutant APP (hereinafter referred to as “CHO/APPswe cells”) are treated with a variety of APP-based BACE1 inhibitor peptides, as shown in Table 1 and Table 2. Aβ production is determined using ELISA.

BACE1 = BACE1 (Homo sapiens, UniProt P56817); assay: Binding to and cleavage by recombinant BACE1 (WB, IP); conditions: biotin-labeled peptide, recombinant BACE1, 4 hours
Chain of BACE1 (P56817 46-501): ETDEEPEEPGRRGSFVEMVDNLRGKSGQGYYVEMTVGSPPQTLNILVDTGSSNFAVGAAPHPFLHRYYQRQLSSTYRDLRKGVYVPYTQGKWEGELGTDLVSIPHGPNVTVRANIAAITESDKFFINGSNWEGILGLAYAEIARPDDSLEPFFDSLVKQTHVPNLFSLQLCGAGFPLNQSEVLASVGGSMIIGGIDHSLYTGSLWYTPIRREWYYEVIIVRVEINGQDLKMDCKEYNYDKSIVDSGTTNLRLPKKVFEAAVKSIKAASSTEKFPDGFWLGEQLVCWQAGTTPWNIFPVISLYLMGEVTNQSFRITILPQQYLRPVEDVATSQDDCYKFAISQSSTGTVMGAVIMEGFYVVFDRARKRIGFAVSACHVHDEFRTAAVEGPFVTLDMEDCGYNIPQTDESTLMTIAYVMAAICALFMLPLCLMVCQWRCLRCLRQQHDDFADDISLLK
Description: Biotin-labeled TAT-APPsweBBP was incubated with or without recombinant BACE1 protein and examined by western blot (A). Full length TAT-APPsweBBP and β-cleaved TAT-APPsweBBP were clearly detected. Immunoprecipitation (IP) with anti-BACE1 antibody and subsequent WB with anti-biotin antibody (B) and IP with anti-biotin antibody and then WB with anti-BACE1 antibody (C) both reveal that TAT-APPsweBBP, but not TAT peptide, binds to BACE1. To further confirm TAT-APPswcBPP can bind to BACE1, human wild-type APP expressing CHO cells were incubated with biotin-labeled TAT-APPsweBBP or biotin-labeled APPsweBBP at 20 μM for 30 minutes, and then stained with anti-BACE1 or anti-biotin antibodies (D). […] In addition, these treated cells were further analyzed by IP with anti-biotin and subsequent WB with anti-BACE1 antibodies (E), with results showing that TAT-APPsweBBP strongly and specifically binds to BACE1.
In order to confirm that APPsweBBP containing the β-cleavage site could bind to and be consequently proteolyzed by BACE1, 10 μg of biotin-labeled TAT-APPsweBBP was incubated with or without 10 μL of recombinant BACE1 protein (1.0 U/mL) in BACE1 reaction buffer for 4 hours at 37° C. and then subjected to Western blot (WB) analysis as described previously (Rezai-Zadeh et al., 2005; Obregon et al., 2012). […]

YGRKKRRQRRR [TAT, reference compound]
Secreted Aβ40 (ng/mg; mean ± SD) [1]: 11.32 ± 0.45 ng/mg | Secreted Aβ42 (ng/mg; mean ± SD) [1]: 1.07 ± 0.057 ng/mg | Secreted sAPPα (ng/mg; mean ± SD) [1]: 4766.34 ± 198.34 ng/mg | binding to BACE1 protein (IP/WB) (BACE1): not observed
